According to patent US20240352070A1, “NOVEL CATHEPSIN INHIBITORS” (Ecole Polytechnique Federale de Lausanne (EPFL), priority 2021, published 2024):
Numbered stars: 1 amine (or outer) side, 2 acyl side, 3 side chain; on linkers, the order of the positions; unused ones are H or OH. Square brackets hold non-standard residues; d marks the D form. Peptide text beside a SMILES is read from it. Trp(3a,7a-dihydro) = N[C@@H](CC1=CNC2C=CC=CC12)C(=O)O; Butenoyl(2E,4-amino) = O=C(/C=C/CN[*:1])[*:2]; Dap(N3) = [N-]=[N+]=NC[C@H](N)C(=O)O; Pra = C#CC[C@H](N)C(=O)O

What was measured:
[1] = molecular target: T1, CTSS in primary human B-cells (Homo sapiens, UniProt P25774); assay: qABP assay on primary human B-cells; type: cell-based; conditions: 2 different donors
T1 construct: endogenous in cells; host or cells: primary human B-cells (2 donors)
Excerpt: FIG. 11. Output of quenched activity-based probe (qABP) assay on primary human B-cells. The presence of a dark band at a precise molecular weight indicates to the detection of a strong activity of the corresponding cathepsin. Absence of a band means complete cathepsin inhibition. APeC=antibody-peptide conjugate. ab=antibody.

CTSS in Raji cells = assay: CD74 accumulation assay in Raji cells; type: cell-based, human; conditions: 48 hours, compared to PBS or antibody mixed to C10 in absence of linker
Protocol: (§1) FIG. 7. A-B CD74 accumulation after 48 hours-long anti-CD22 APeC treatment in WSU cells (A) and Raji cells (B). C-D CD74 accumulation after 48 hours-long anti-CD79 APeC treatment in WSU cells (C) and Raji cells (D). Single-cell fluorescence was measured by flow cytometry. CTSS inhibitor Petesicatib was used as positive control.
(§2) CD74 accumulation assay for efficacy assessment. To test the efficacy of our APeCs, 2×10^5 WSU-DLCL2 or Raji cells were incubated for two days with 300 or 500 ug/ml of APeC, in RPMI 1640 medium (ThermoFisher Scientific) supplemented with 10% FBS and 1% Penicillin-Streptomycin (ThermoFisher Scientific, cat. no. 15140122). After the first 24 h treatment, the cells were washed and resuspended in fresh APeC at the same treatment concentration. As negative controls, the same number of cells was either treated with PBS or with 300 ug/ml of the corresponding antibody previously incubated with C10 inhibitor in absence of DBCO-maleimide linker. […] Cells were then stained with anti-human CD74 antibody (BioLegend, cat. no. 357604) and fluorescence was measured by flow cytometry using BD LSRFortessa instrument (BD Biosciences). […] The gel was analysed by scanning in-gel fluorescence on a Typhoon Trio flat-bed laser scanner (GE Healthcare), and protein loading was confirmed by staining with Coomassie® Brilliant Blue R-250 (Schmidt GmbH). […]

CTSS in WSU-DLCL2 cells = assay: CD74 accumulation assay in WSU-DLCL2 cells; type: cell-based, human; conditions: 48 hours, compared to PBS or antibody mixed to C10 in absence of linker
Protocol: as §1, §2

cathepsin B (CTSB) = molecular target: T2, cathepsin B (CTSB) (Homo sapiens, UniProt P07858); assay: Specificity assay: FRET assay for CTSB activity; type: biochemical
T2 construct: purchased RndSystems
Protocol: (§3) Specificity assay. […] First, we used specific conditions to activate the enzymes. CTSB was diluted in a specific activation buffer (MES 25 mM, DTT 5 mM, pH 5) at 10 ug/ml, incubated at 37° C. for 2 h and then diluted to 1 ug/ml in assay buffer (MES 25 mM, pH 5) for the FRET assay. CTSH was diluted in a different activation buffer (MES 50 mM, CaCl2) 10 mM, NaCl 150 mM, pH 6.5) at 200 ug/ml. In addition, as co-stimulatory activator we used thermolysin diluted at 100 ug/ml in activation buffer and then mixed with an equal volume of the diluted CTSH. The solution was incubated for 1 h at room temperature and then we added 2 mM Phosphoramidon diluted in assay buffer (MES 50 mM, pH 6.5) and we incubated the mix for 10 minutes at room temperature. Lastly, we added an equal volume of assay buffer containing 20 mM DTT and incubated the solution for 5 minutes at room temperature. For the FRET assay, we diluted both CTSH, and CTSB at 1 ug/ml in their specific assay buffer and incubated them with a specific substrate. We used as substrate KPPKPVSD in CTSB FRET assays and KLRMKLPKP in CTSH FRET assays and we tested two doses of our P3 inhibitor (20 uM and 50 uM). Fluorescence emission was measured with SpectraMax iD3 (Molecular Devices) in kinetic mode over three hours (excitation: 330 nm, emission: 390 nm).

cathepsin H (CTSH) = molecular target: T3, cathepsin H (CTSH) (Homo sapiens, UniProt P09668); assay: Specificity assay: FRET assay for CTSH activity; type: biochemical; conditions: at 20 uM or 50 uM, 180 minutes
T3 construct: purchased RndSystems
Protocol: as §3

CTSS Y132D = molecular target: T4, CTSS Y132D (Homo sapiens, UniProt P25774, Y132D); assay: FRET assay with mutated CTSS Y132D; type: biochemical
T4 construct: made in house; host or cells: HEK293
Excerpt: (§4) Cathepsins protein expression and purification. For CTSS purification, the human CTSS sequence depleted of the lysosomal localization signal (amino acids 17 to 331) was amplified from pLVX plasmids expressing WT or Y132D CTSS using the following primers: […]
(§5) The PCR products were digested using Agel and Kpn1 restriction enzymes (NEB, cat #R3552S and #R3142S), then cloned in pHLsec plasmids carrying a secretion signal at the N-terminal of the MCS and a His-tag sequence at the C-terminal of the MCS. pHLsec-CTSS plasmids were transfected into HEK293 cells with PEI (polyethyleneimine) in presence of VPA (valproic acid). Proteins were purified from the supernatant using a 5 ml His-Trap FF column on an ÄKTA pure system (GE healthcare). Bound proteins were eluted using a 300 mM imidazole solution. Concentrated proteins were further purified by size exclusion chromatography on a HiLoad® 16/600 Superdex® 75 pg column (GE Healthcare) using PBS as mobile phase. Purified proteins were quantified by Nanodrop, diluted in a buffer containing 12.5 mM MES, 75 mM NaCl and 50% glycerol at ph 6.5 and stored at −20° C. Purified CTSB and CTSH were purchased from RndSystems.
FRET (Fluorescence Resonance Energy Transfer) assay to test CTSS activity. For FRET experiments, CTSS-His was diluted to 10 μg/mL in assay buffer (50 mM NaOAc, 5 mM DTT, 250 mM NaCl), at pH 4.5 and incubated at 37° C. for 90 minutes to allow auto-activation. The protein was then diluted to 0.5 ng/ul in assay buffer and plated in 96-well plates (50 ul/well). […] The peptide was added to the activated CTSS (50 ul/well) and fluorescent emission (MCA) was measured with SpectraMax iD3 (Molecular Devices) in kinetic mode for three hours (excitation: 330 nm, emission: 390 nm).
It was recently reported that 5.7% of lymphoma patients harbour a specific gain of function mutation changing the tyrosine 132 in aspartate (Y132D) or asparagine (Y132N). […] This was measured through a FRET assay in which the inhibitor was incubated with CTSS Y132D. […]

CTSS wild-type = molecular target: T5, CTSS wild-type (Homo sapiens, UniProt P25774); assay: FRET assay to test CTSS activity (wild-type); type: biochemical
T5 construct: made in house; host or cells: HEK293
Excerpt: as §4
as §5, with “Purified CTSB and CTSH were purchased from RndSystems.” left out
FRET (Fluorescence Resonance Energy Transfer) assay to test CTSS activity. […] The peptide was added to the activated CTSS (50 ul/well) and fluorescent emission (MCA) was measured with SpectraMax iD3 (Molecular Devices) in kinetic mode for three hours (excitation: 330 nm, emission: 390 nm). […]

CTSB in MCF-7 cells = molecular target: T6, CTSB in MCF-7 cells (Homo sapiens, UniProt P07858); assay: Quenched activity-based probe (qABP) assay in MCF-7 cells; type: cell-based; conditions: 16 hours, 500 ug/ml APeC, compared to PBS or antibody mixed to C10 without linker
T6 construct: endogenous in cells; host or cells: MCF-7
Protocol: FIG. 8. Output of quenched activity-based probe (qABP) assay. The presence of a dark band corresponds to the detection of a strong activity of CTSB. Absence of a band means complete CTSB inhibition. APeC=antibody-peptide conjugate. Ab=antibody.
as §2, with “linker. Each treatment condition was tested in duplicates.” for “linker.”

WSU-DLCL2 cells = assay: Internalization assay by flow cytometry; type: cell-based; conditions: 100 ug/ml
Protocol: FIG. 6. A-B Results of internalization assay performed by incubating WSU-DLCL2 cells with the Epr-AF488 antibody for 3 hours at 37° C. (A) or 4° C. (B). Single-cell fluorescence was measured by flow cytometry.
Internalization assay. To test the internalization of the conjugated Epratuzumab antibody, 2×10^5 WSU-DLCL2 cells were incubated at 37° C. for 3 hours with 100 ug/ml of Epr-AF488 in PBS. As negative control, the same number of cells was incubated with 100 ug/ml of Epratuzumab previously incubated with AF488 dye in absence of DBCO-maleimide linker. Each experimental condition was tested in duplicates. Cells were then washed 3 times with PBS and 1 ul of anti-AF488 quencher antibody (ThermoFisher Scientific, A-11094) was added to half of the samples. Samples' fluorescence was measured by flow cytometry using Millipore Guava EasyCyte HT instrument (MilliporeSigma).

[2] = at 20 uM and at 50 uM, FRET, 180 minutes

T4 sequence (P25774 115-331 Y132D): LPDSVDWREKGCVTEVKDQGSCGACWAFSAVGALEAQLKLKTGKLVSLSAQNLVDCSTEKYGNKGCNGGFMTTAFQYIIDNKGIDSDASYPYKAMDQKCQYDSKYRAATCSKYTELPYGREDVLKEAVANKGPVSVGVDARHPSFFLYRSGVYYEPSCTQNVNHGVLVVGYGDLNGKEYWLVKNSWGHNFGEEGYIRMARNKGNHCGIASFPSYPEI
T5 sequence (P25774 115-331): as the sequence (P25774 115-331 Y132D) above, with D18Y counted along it
T1 sequence (P25774 115-331): as the sequence (P25774 115-331 Y132D) above, with D18Y counted along it
T3 sequence (P09668 116-335 limits assumed, other chains not shown): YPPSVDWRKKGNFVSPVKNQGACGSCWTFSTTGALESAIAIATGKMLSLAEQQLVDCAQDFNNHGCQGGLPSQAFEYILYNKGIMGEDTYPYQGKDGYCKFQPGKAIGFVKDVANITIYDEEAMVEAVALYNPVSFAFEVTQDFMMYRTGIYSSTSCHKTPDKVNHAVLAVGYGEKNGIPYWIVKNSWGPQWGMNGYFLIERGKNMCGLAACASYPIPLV

Cn1cc(-c2ccc(S(=O)(=O)[C@@H]3C[C@@H](C(=O)NC4(C#N)CC4)N(C(=O)C4(C(F)(F)F)CC4)C3)c(C(F)(F)F)c2)cn1 [Petesicatib]
CTSS inhibition (qABP band) [1]: comparable | CD74 accumulation (CTSS in Raji cells): lower than what we obtained with lower doses of our APeCs | CD74 accumulation (CTSS in WSU-DLCL2 cells): lower than what we obtained with lower doses of our APeCs

CSCC[C@H](NC(=O)[C@H](CC1=CNC2C=CC=CC12)NC(=O)/C=C/CNC(=O)[C@H](Cc1ccc(O)cc1)NC(=O)[C@H](CCCNC(=N)N)NC(=O)[C@H](CCCNC(=N)N)NC(=O)[C@H](CCCCN)NC(=O)[C@H](CN=[N+]=[N-])NC(C)=O)C(=O)N[C@@H](CC1=CNC2C=CC=CC12)C(N)=O (some centres unmarked) [D5, KRRY(Y)WMW] (Ac-[Dap(N3)]KRRY[Butenoyl(2E,4-amino)][Trp(3a,7a-dihydro)]M[Trp(3a,7a-dihydro)]-NH2)
IC50 (cathepsin B (CTSB); dose-response, 50 minutes of incubation): 61.9 nM

C#CC[C@H](NC(C)=O)C(=O)N[C@@H](CCCCN)C(=O)N[C@@H](CC(C)C)C(=O)N[C@@H](CCCNC(=N)N)C(=O)N[C@@H](CCSC)C(=O)NC/C=C/C(=O)N1CCC[C@H]1C(=O)N[C@@H](CCCCN)C(=O)N[C@@H](CC(=O)O)C(N)=O [P3, KLRM(Y)PKD] (Ac-[Pra]KLRM[Butenoyl(2E,4-amino)]PKD-NH2)
inhibition of CTSH (cathepsin H (CTSH)): not significantly inhibited | inhibition of mutant form of CTSS (Y132D) (CTSS Y132D; [2]): able to inhibit | inhibition of wild-type CTSS (CTSS wild-type; [2]): able to inhibit | inhibitory activity on CTSB (cathepsin B (CTSB)): some inhibitory activity

CC(C)C[C@H](NC(=O)[C@H]1O[C@@H]1C(=O)O)C(=O)NCCCCN=C(N)N [E64]
residual CTSB activity (CTSB in MCF-7 cells): inhibited CTSB activity as expected

CSCC[C@H](NC(=O)[C@H](CCCNC(=N)N)NC(=O)[C@H](Cc1c[nH]cn1)NC(=O)[C@H](CCCCN)NC(=O)[C@H](CN=[N+]=[N-])NC(C)=O)C(=O)NC/C=C/C(=O)N[C@H](C(=O)N[C@@H](CCSC)C(=O)N[C@@H](Cc1c[nH]c2ccccc12)C(N)=O)C(C)C [C10, KHRM(Y)VMW] (Ac-[Dap(N3)]KHRM[Butenoyl(2E,4-amino)]VMW-NH2)
inhibition at 0.5 µM (CTSS Y132D; at 500 nM, 50 minutes of incubation, read-out: reduction of CTSS Y132D activity (inhibition efficiency)): > 90% | reduction of CTSS Y132D activity (CTSS Y132D; tested at 50 nM, 50 minutes of incubation): more than 50% | IC50 (CTSS wild-type; FRET assay, dose-response, 50 minutes of incubation, wild-type CTSS): 49.3 nM

Epr-AF488: Epratuzumab antibody conjugated with AlexaFluor-488 azide-dye instead of C10
internalization by lymphoma cells (inaccessible to quencher antibody) (WSU-DLCL2 cells; 3 hours at 37° C.): internalized | binding to lymphoma cells (WSU-DLCL2 cells; 3 hours, flow cytometry): still able to bind lymphoma cells
